Assays:
HOP-92 = assay: NCI60 screening, Non-Small Cell Lung Cancer, HOP-92; format: cell-based, human
IGROV1 = assay: NCI60 screening, Ovarian Cancer, IGROV1; format: cell-based, human
MCF7 = assay: NCI60 screening, Breast Cancer, MCF7; format: cell-based, human
NCI-H522 = assay: NCI60 screening, Non-Small Cell Lung Cancer, NCI-H522; format: cell-based, human
SW-620 = assay: NCI60 screening, Colon Cancer, SW-620; format: cell-based, human
COLO 205 = assay: NCI60 screening, Colon Cancer, COLO 205; format: cell-based, human
786-0 = assay: NCI60 screening, Renal Cancer, 786-0; format: cell-based, human
NCI-H460 = assay: NCI60 screening, Non-Small Cell Lung Cancer, NCI-H460; format: cell-based, human
PC-3 xenograft tumor = PC-3 xenograft tumor growth in nude mice, oral gavage; format: in vivo; conditions: after 7 weeks, P<0.05
Experimental: FIG. 2 provides three graphs (A-C) showing the in vivo effects of OSU-A9M (C) versus OSU-A9 (A) and OSU-A9 F (B), each at 25 and 50 mg/kg per day by oral gavage, on suppressing PC-3 xenograft tumor growth in nude mice (n=6).
The efficacy studies were therefore repeated with OSU-A9M and OSU-A9F, following 42 days and 49 days treatment, respectively, versus OSU-A9 with 49-day treatment.
In all three treatments, the body weights of drug-treated mice were not affected. No signs of overt toxicity were observed.

NCl/ADR-RES = assay: NCI60 screening, Ovarian Cancer, NCl/ADR-RES; format: cell-based, human
OVCAR-3 = assay: NCI60 screening, Ovarian Cancer, OVCAR-3; format: cell-based, human
[1] = Body weight of PC-3 xenograft mice receiving the experimental diet; format: in vivo, nude mice; conditions: 450 ppm in diet, compared to controls
Experimental: Given the increased potency of OSU-A9M compared to the other lead derivatives, an experimental diet was formulated. An AIN-76A rodent diet (American Institute of Nutrition; including primarily casein, sucrose, and corn starch) containing 450 ppm OSU-A9M was made to deliver approximately 50 mg/kg of drug per day to each mouse estimated by food consumption and body weight measurements.

UACC-257 = assay: NCI60 screening, Melanoma, UACC-257; format: cell-based, human
MALME-3M = assay: NCI60 screening, Melanoma, MALME-3M; format: cell-based, human
SK-MEL-28 = assay: NCI60 screening, Melanoma, SK-MEL-28; format: cell-based, human
SF-295 = assay: NCI60 screening, CNS Cancer, SF-295; format: cell-based, human
SK-OV-3 = assay: NCI60 screening, Ovarian Cancer, SK-OV-3; format: cell-based, human
[2] = Homo sapiens, read-out: LC50 (the source's name)

Cc1ccc2c(c1)c(CO)cn2S(=O)(=O)c1ccc(Cl)c([N+](=O)[O-])c1 [OSU-A9M, [1-(4-chloro-3-nitro-benzenesulfonyl)-5-methyl-1H-indol-3-yl]-methanol]
TGI (HOP-92): 2.67E−6 | GI50 (HOP-92; Homo sapiens): 1310 nM | CC50 (HOP-92; [2]): 5430 nM | Percent Growth (HOP-92; Log10 Concentration −4.0): −97% | Percent Growth (HOP-92; Log10 Concentration −5.0): −93% | Percent Growth (HOP-92; Log10 Concentration −6.0): 69% | Percent Growth (HOP-92; Log10 Concentration −7.0): 76% | Percent Growth (HOP-92; Log10 Concentration −8.0): 92% | TGI (IGROV1): 1.23E−6 | GI50 (IGROV1; Homo sapiens, IGROV-1): 349 nM | CC50 (IGROV1; Homo sapiens, IGROV-1, read-out: LC50 (the source's name)): 3500 nM | Percent Growth (IGROV1; Log10 Concentration −4.0): −100% | Percent Growth (IGROV1; Log10 Concentration −5.0): −100% | Percent Growth (IGROV1; Log10 Concentration −6.0): 10% | Percent Growth (IGROV1; Log10 Concentration −7.0): 98% | Percent Growth (IGROV1; Log10 Concentration −8.0): 86% | TGI (MCF7): 2.21E−6 | GI50 (MCF7; Homo sapiens): 582 nM | CC50 (MCF7; [2]): 6090 nM | Percent Growth (MCF7; Log10 Concentration −4.0): −82% | Percent Growth (MCF7; Log10 Concentration −5.0): −75% | Percent Growth (MCF7; Log10 Concentration −6.0): 39% | Percent Growth (MCF7; Log10 Concentration −7.0): 85% | Percent Growth (MCF7; Log10 Concentration −8.0): 84% | TGI (NCI-H522): 3.54E−7 | GI50 (NCI-H522; Homo sapiens): 145 nM | CC50 (NCI-H522; [2]): 861 nM | Percent Growth (NCI-H522; Log10 Concentration −4.0): −96% | Percent Growth (NCI-H522; Log10 Concentration −5.0): −96% | Percent Growth (NCI-H522; Log10 Concentration −6.0): −58% | Percent Growth (NCI-H522; Log10 Concentration −7.0): 71% | Percent Growth (NCI-H522; Log10 Concentration −8.0): 77% | TGI (SW-620): 2.44E−6 | GI50 (SW-620; Homo sapiens): 1210 nM | CC50 (SW-620; [2]): 4940 nM | Percent Growth (SW-620; Log10 Concentration −4.0): −100% | Percent Growth (SW-620; Log10 Concentration −5.0): −100% | Percent Growth (SW-620; Log10 Concentration −6.0): 63% | Percent Growth (SW-620; Log10 Concentration −7.0): 90% | Percent Growth (SW-620; Log10 Concentration −8.0): 96% | TGI (COLO 205): 3.14E−6 | GI50 (COLO 205; Homo sapiens): 1700 nM | CC50 (COLO 205; [2]): 5790 nM | Percent Growth (COLO 205; Log10 Concentration −4.0): −87% | Percent Growth (COLO 205; Log10 Concentration −5.0): −95% | Percent Growth (COLO 205; Log10 Concentration −6.0): 93% | Percent Growth (COLO 205; Log10 Concentration −7.0): 92% | Percent Growth (COLO 205; Log10 Concentration −8.0): 98% | TGI (786-0): 3.22E−6 | GI50 (786-0; Homo sapiens): 1780 nM | CC50 (786-0; [2]): 5830 nM | Percent Growth (786-0; Log10 Concentration −4.0): −100% | Percent Growth (786-0; Log10 Concentration −5.0): −95% | Percent Growth (786-0; Log10 Concentration −6.0): 98% | Percent Growth (786-0; Log10 Concentration −7.0): 98% | Percent Growth (786-0; Log10 Concentration −8.0): 96% | TGI (NCI-H460): 3.36E−6 | GI50 (NCI-H460; Homo sapiens): 1830 nM | LC50 (concentration killing 50% of cells) (NCI-H460; Homo sapiens): 6180 nM | Percent Growth (NCI-H460; Log10 Concentration −4.0): −89% | Percent Growth (NCI-H460; Log10 Concentration −5.0): −89% | Percent Growth (NCI-H460; Log10 Concentration −6.0): 100% | Percent Growth (NCI-H460; Log10 Concentration −7.0): 99% | Percent Growth (NCI-H460; Log10 Concentration −8.0): 96% | Suppression of the volume of PC-3 tumor growth (PC-3 xenograft tumor; 25 mg/kg per day by gavage): 44.0% | Suppression of the volume of PC-3 tumor growth (PC-3 xenograft tumor; 50 mg/kg per day by gavage): 67.6% | TGI (NCl/ADR-RES): 3.32E−6 | GI50 (NCl/ADR-RES; Homo sapiens): 1810 nM | CC50 (NCl/ADR-RES; [2]): 6090 nM | Percent Growth (NCl/ADR-RES; Log10 Concentration −4.0): −93% | Percent Growth (NCl/ADR-RES; Log10 Concentration −5.0): −91% | Percent Growth (NCl/ADR-RES; Log10 Concentration −6.0): 99% | Percent Growth (NCl/ADR-RES; Log10 Concentration −7.0): 102% | Percent Growth (NCl/ADR-RES; Log10 Concentration −8.0): 96% | TGI (OVCAR-3): 4.90E−7 | GI50 (OVCAR-3; Homo sapiens): 225 nM | CC50 (OVCAR-3; [2]): 1190 nM | Percent Growth (OVCAR-3; Log10 Concentration −4.0): −100% | Percent Growth (OVCAR-3; Log10 Concentration −5.0): −100% | Percent Growth (OVCAR-3; Log10 Concentration −6.0): −46% | Percent Growth (OVCAR-3; Log10 Concentration −7.0): 102% | Percent Growth (OVCAR-3; Log10 Concentration −8.0): 100% | Body weights of mice receiving the experimental diet [1]: unchanged compared to controls | TGI (UACC-257): 3.31E−6 | GI50 (UACC-257; Homo sapiens): 1720 nM | CC50 (UACC-257; [2]): 6400 nM | Percent Growth (UACC-257; Log10 Concentration −4.0): −96% | Percent Growth (UACC-257; Log10 Concentration −5.0): −84% | Percent Growth (UACC-257; Log10 Concentration −6.0): 91% | Percent Growth (UACC-257; Log10 Concentration −7.0): 94% | Percent Growth (UACC-257; Log10 Concentration −8.0): 96% | GI50 (MALME-3M; Homo sapiens, Malme-3M): 1870 nM | CC50 (MALME-3M; Homo sapiens, Malme-3M, read-out: LC50 (the source's name)): 9000 nM | TGI (MALME-3M; MALME-3M): 4.10E−6 | Percent Growth (MALME-3M; MALME-3M, Log10 Concentration −4.0): −75% | Percent Growth (MALME-3M; MALME-3M, Log10 Concentration −5.0): −57% | Percent Growth (MALME-3M; MALME-3M, Log10 Concentration −6.0): 90% | Percent Growth (MALME-3M; MALME-3M, Log10 Concentration −7.0): 78% | Percent Growth (MALME-3M; MALME-3M, Log10 Concentration −8.0): 83% | TGI (SK-MEL-28): 2.91E−6 | GI50 (SK-MEL-28; Homo sapiens): 1570 nM | LC50 (SK-MEL-28; Homo sapiens): 5400 nM | Percent Growth (SK-MEL-28; Log10 Concentration −4.0): −100% | Percent Growth (SK-MEL-28; Log10 Concentration −5.0): −100% | Percent Growth (SK-MEL-28; Log10 Concentration −6.0): 87% | Percent Growth (SK-MEL-28; Log10 Concentration −7.0): 89% | Percent Growth (SK-MEL-28; Log10 Concentration −8.0): 93% | TGI (SF-295): 3.07E−6 | GI50 (SF-295; Homo sapiens): 1620 nM | CC50 (SF-295; [2]): 5810 nM | Percent Growth (SF-295; Log10 Concentration −4.0): −86% | Percent Growth (SF-295; Log10 Concentration −5.0): −93% | Percent Growth (SF-295; Log10 Concentration −6.0): 88% | Percent Growth (SF-295; Log10 Concentration −7.0): 91% | Percent Growth (SF-295; Log10 Concentration −8.0): 77% | TGI (SK-OV-3): 3.06E−6 | GI50 (SK-OV-3; Homo sapiens): 1670 nM | CC50 (SK-OV-3; [2]): 5620 nM | Percent Growth (SK-OV-3; Log10 Concentration −4.0): −100% | Percent Growth (SK-OV-3; Log10 Concentration −5.0): −97% | Percent Growth (SK-OV-3; Log10 Concentration −6.0): 92% | Percent Growth (SK-OV-3; Log10 Concentration −7.0): 97% | Percent Growth (SK-OV-3; Log10 Concentration −8.0): 95%

— patent US8680133B2, “Alkyl indole-3-carbinol-derived antitumor agents” (The Ohio State University Research Foundation, priority 2009, dated 2014)
